Laboratory results reported in patent US12151010B2, “Skin lightening agent” (POLA CHEMICAL INDUSTRIES, INC., priority 2018, dated 2024).

Tested on: pigmentation of UV-irradiated test sites on the medial upper arms of panelists
Experiment: Test of skin whitening effect (pigmentation ameliorating effect), skin lightness L* by color difference meter after UV irradiation
Format: in vivo, human (panelists)
Conditions: for Pigmentation amelioration Rating: 25-day application; for Pigmentation amelioration ΔL*: 50 μL twice a day for 25 days after 3x 1 MED UV, L* minus Comparative Example site
Method: The cosmetics according to Table 1 (Examples 1 to 9, Comparative Example, and Reference Example) were prepared respectively in a conventional manner. With regard to each of the prepared cosmetics, the skin whitening effect (pigmentation ameliorating effect) was evaluated by the following method. That is, total 8 test sites in a size of 0.5 cm×0.5 cm were established on the medial parts of the left and right upper arms of each of 10 panelists who participated voluntarily. Each established site was irradiated with a minimum erythema dose (1 MED) of UV light once a day for three consecutive days, namely totally three times. At the end of the UV irradiation on the first day of the test (at the end of the first irradiation) and thereafter each 50 μL of the cosmetics of Comparative Example and any one of Examples 1 to 9 or Reference Example were applied respectively to one site and the remaining seven sites twice a day for 25 consecutive days. The skin lightness (L* value) of each test site was measured 24 hours after the end of the 25-day application period with a color difference meter (CR-300, Konica Minolta Holdings, Inc.). By subtracting the L* value of the site to which the cosmetic of Comparative Example was applied from each L* value of the sites to which the cosmetic of Example or Reference Example was applied, the difference in skin lightness (ΔL* value) was calculated. Since the L* value decreases, as the degree of pigmentation becomes severer, it may be so judged that pigmentation is ameliorated, when the ΔL* value is higher.

[1] = content 0.01% by mass in Table 1 cosmetic
[2] = content 1% by mass in Table 1 cosmetic
[3] = content 3% by mass in Table 1 cosmetic

Structure (SMILES) | Pigmentation amelioration Rating [1] | Pigmentation amelioration ΔL* [1] | Pigmentation amelioration Rating [2] | Pigmentation amelioration ΔL* [2] | Pigmentation amelioration Rating [3] | Pigmentation amelioration ΔL* [3]
NCC1CCC(C(=O)c2ccc(CCC(=O)O)cc2)CC1 (centres unmarked) [Compound 1, 3-[p-(4-aminomethylcyclohexylcarbonyl)phenyl]propionic acid] | A (0.4 < ΔL* < 0.5) | 0.47 | AA (ΔL* ≥ 0.5%) | 0.50 | AA (ΔL* ≥ 0.5%) | 0.52
CCCCCCOC(=O)CCc1ccc(C(=O)C2CCC(CN)CC2)cc1 (centres unmarked) [Compound 2, 3-[p-(4-aminomethylcyclohexylcarbonyl)phenyl]propionate hexyl] | – | – | A (0.4 < ΔL* < 0.5) | 0.43 | – | –
NCC1CCC(C(=O)c2ccc(CCCO)cc2)CC1 (centres unmarked) [Compound 3, 3-[p-(4-aminomethylcyclohexylcarbonyl)phenyl]propanol] | A (0.4 < ΔL* < 0.5) | 0.45 | A (0.4 < ΔL* < 0.5) | 0.48 | – | –
CCCCCC(=O)OCCCc1ccc(C(=O)C2CCC(CN)CC2)cc1 (centres unmarked) [Compound 4, 3-[p-(4-aminomethylcyclohexylcarbonyl)phenyl]propyl hexanoate] | – | – | A (0.4 < ΔL* < 0.5) | 0.45 | – | –
CCCCCC(=O)OCC(C)Cc1ccc(C(=O)C2CCC(CN)CC2)cc1 (centres unmarked) [Compound 5, 2-methyl-3-[p-(4-aminomethylcyclohexylcarbonyl)phenyl]propyl hexanoate] | – | – | A (0.4 < ΔL* < 0.5) | 0.42 | – | –
Cl.NCC1CCC(C(=O)c2ccc(CCC(=O)O)cc2)CC1 (centres unmarked) [Hydrochloride of Compound 1] | – | – | AA (ΔL* ≥ 0.5%) | 0.52 | – | –
NC[C@H]1CC[C@H](C(=O)O)CC1 [Tranexamic acid, reference compound] | – | – | B (ΔL* ≤ 0.4) | 0.40 | – | –
